Assay results from patent US9061010B2, “Methods of treating a Flaviviridae family viral infection and compositions for treating a Flaviviridae family viral infection” (The Board of Trustees of the Leland Stanford Junior …, priority 2007, dated 2015).
“Also recorded” adds a separate entry of the source.

Columns and labels:
[1] = system: Huh7.5 cells; test: Alamar Blue viability assay
Protocol: (§1) Huh-7.5 cells were maintained in Dulbecco's modified minimal essential medium (Gibco) supplemented with 1% L-glutamine (Gibco), 1% penicillin, 1% streptomycin (Gibco), 1× nonessential amino acids (Gibco) and 10% fetal bovine serum (Omega Scientific). Cell lines were passaged twice weekly after treatment with 0.05% trypsin-0.02% EDTA and seeding at a dilution of 1:5. Subconfluent Huh-7.5 cells were trypsinized and collected by centrifugation at 700 g for 5 min. The cells were then washed three times in ice-cold RNase-free PBS (BioWhittaker) and resuspended at 1.5*10^7 cells/ml in PBS. Wild type or mutant FL-J6/JFH-5′C19Rluc2AUbi RNA for electroporation was generated by in vitro transcription of XbaI-linearized DNA templates using the T7 MEGAscript kit (Ambion), followed by purification, essentially as described above (In vitro RNA transcription and fluorescent labeling). 5 μg of RNA was mixed with 400 μl of washed Huh-7.5 cells in a 2 mm-gap cuvette (BTX) and immediately pulsed (0.82 kV, five 99 μs pulses) with a BTX-830 electroporator. After a 10 min recovery at 25° C., pulsed cells were diluted into 10 ml of prewarmed growth medium. Cells from several electroporations were pooled to a common a stock and seeded in 6 well plates (5*10^5 cells per well). After 24 hr, medium was replaced and cells were grown in the presence of serial dilutions of the various inhibitory compounds (Sigma) identified in the screen. […] Untreated cells were used as a negative control for water soluble compounds. For compounds solubilized in DMSO, untreated cells were grown in the presence of corresponding concentrations of the solvent as a negative control. Medium was changed daily. After 72 hr of treatment, cells were subjected to an alamar blue based viability assay and luciferase assay.
(§2) Following 72 hrs of treatment, cells were incubated for 3 hrs at 37° C. in the presence of 10% Alamar Blue reagent (TREK Diagnostic Systems).

[2] = molecular target: T1, HuR protein (Homo sapiens, UniProt Q15717); test: Microfluidic RNA binding assay of HuR (specificity of hits); conditions: 0.1 mM
T1 construct: made in house; […]
Excerpt: For each experiment, an image was taken after MITOMI and the final PBS wash. This was used to determine the concentration of surface bound protein (FITC channel) as well as surface bound target RNA (Cy3 channel). […] Data from multiple data points were averaged, and their standard deviations calculated. Results were then normalized to 1. Between 10-20 replicates were included for each probe tested. A control protein, Gus-his (Roche) was included in each experiment and subjected to the same analysis. When present, detected signal with Gus-his was used for background subtraction.
Specificity of hits identified in the small molecule screen: To determine the specificity of the hits identified in the small molecule screen, the HuR protein (one of the human RNA binding protein used to validate our RNA binding assay) was selected. […] Binding of HuR to the consensus 4A RNA sequence was tested in the presence of the inhibitory molecules shown to inhibit RNA binding by NS4B. […] Similarly, 0.1 mM of the identified compounds didn't have an inhibitory effect on binding of HuR to the 3′ terminus of the negative HCV RNA strand.

[3] = system: W55R mutant J6/JFH RNA; test: Luciferase reporter-linked replication assay, W55R mutant; format: cell-based, Hepatitis C Virus; conditions: 10 μM clemizole; whole cell RNA or in vitro-transcribed RNA
Excerpt: Two of the clemizole-resistant NS4B mutants were characterized in detail. The first, W55R is depicted in FIG. 9a. It involves the substitution of an arginine for the tryptophan at amino acid 55 within a predicted cytoplasmically-oriented segment of NS4B. This mutation is sufficient to confer a clemizole-resistant phenotype in cells: Huh7.5 cells transfected with either whole cell RNA extracted from the W55R mutant cells (FIG. 9b) or with in vitro-transcribed J6/JFH RNA encoding this point mutation and a linked luciferase reporter gene (FIG. 9c) were unaffected by 10 μM clemizole.
The plasmid FL-J6/JFH-5′C19Rluc2AUbi that consists of the full-length HCV genome and expresses Renilla luciferase was a gift from Dr. Charles M. Rice^28. The W55R mutation was introduced into this plasmid by site-directed mutagenesis (using the QuikChange kit (Stratagene)).
(§3) Medium was changed daily.
Whole cell RNA was extracted from clemizole-resistant replicon clones and from untreated replicon cells using TRIzol reagent (Invitrogen). Equal amounts of whole cell RNA (50 μg) were electroporated into Huh7.5 cells as described above. Cells were grown under G418 selection in the presence or absence of clemizole for 3 weeks. The number of colonies was determined using Image J (NIH) following fixation and staining with Crystal violet.

[4] = cited from earlier work
[5] = cited from earlier work; remark: listed apart in the source
[6] = molecular target: HCV NS4B binding to the 3′ terminus of the HCV negative strand RNA (Hepatitis C virus genotype 1a, UniProt P27958); test: Microfluidic (MITOMI) in vitro RNA binding assay of NS4B; conditions: 10 nM clemizole
[7] = molecular target: T2, W55R NS4B mutant binding to HCV RNA (Hepatitis C virus genotype 1a, UniProt P27958, A1893V/D1840G/F1898S/L1839I/R1905H/S1900A/W1766R); test: Microfluidic in vitro RNA binding assay, W55R NS4B mutant; conditions: 10 nM clemizole
T2 construct: made in house; host or cells: coupled transcription/translation rabbit reticulocyte system (Promega) with canine microsomal membranes
Excerpt: This mutation was also introduced into the NS4B-GFP vector and the resulting vector tested for its RNA binding activity using the in vitro microfluidic assay of the invention.
The plasmid pcDNA-NS4B-GFP encoding NS4B of genotype 1a fused in frame with a C-terminal GFP was previously described^5. The mutations RRa, RRb and W55R were introduced into this plasmid by site-directed mutagenesis (using the QuikChange kit (Stratagene)). The plasmid NS5A(AH)GFP was constructed as previously reported. Gus-his vector was obtained from Roche.

[8] = system: HCV (genotype 4); test: Treatment of patients chronically infected with HCV, serum HCV viral load; format: in vivo, human
Protocol: Three patients chronically-infected with HCV (genotype 4) were treated in accordance with an embodiment of the method of the invention. All were male and had baseline ALT elevations and significant HCV viral loads ranging from 290,000-730,000 IU/ml.
After the first four weeks of clemizole monotherapy, pegylated interferon (180 micrograms Pegasus (Roche) s.q. per week) was added.

[9] = system: HCV RNA replication (full-length luciferase reporter-linked HCV genome); test: Luciferase reporter-linked HCV replication assay in Huh7.5 cells; format: cell-based, Hepatitis C Virus; conditions: for percent of normal HCV RNA replication remaining at 5 µM / percent of normal HCV RNA replication remaining at 10 µM: Hepatitis C virus, Huh7.5, read-out: AV, percent of normal HCV RNA replication remaining
Protocol: For example, HCV replication assays employing a luciferase reporter-linked HCV genome in the presence of various combinations of clemizole and an NS3 protease inhibitor (SCH503034) are shown in FIGS. 1A and 1B. In such assays, luciferase activity is directly proportional to HCV RNA genome replication. […] The results can be plotted on a linear or log scale as a function of drug concentrations to generate replication inhibition curves.
Luciferase assays were performed at 72 hr.
as §3
The experiment was repeated four times, each time with triplicates.

[10] = Alamar Blue viability assay; conditions: human
Protocol: as §1, §2

Molecule | AV score ([9]; 5 uM) | AV score ([9]; 10 uM) | percent of normal HCV RNA replication remaining at 5 µM ([9]; 5 uM) [%] | percent of normal HCV RNA replication remaining at 10 µM ([9]; 10 uM) [%] | further results
Clc1ccc(Cn2c(CN3CCCC3)nc3ccccc32)cc1 [clemizole] |  |  |  |  | toxicity to the cell in the real-time PCR experiment ([1]; HCV-infected Huh7.5 cells, 72 hours, FIG. 15): no measurable toxicity to the cell; inhibitory effect on binding of HuR to the consensus 4A RNA sequence [2]: No inhibitory effect; replication of W55R mutant in presence of clemizole [3]: unaffected; drowsiness, share of patients treated ([4]; Zierz and Greither): 1.3%; patients with drowsiness ([4]; human, in vivo): 2 of the 104 patients; subjects who responded to treatment ([4]; various dosage forms): 92 of the 104 subjects; patients reporting excellent relief of itching ([5]; 40 to 160 mg/day): 66%; patients reporting good relief of itching ([5]; 40 to 160 mg/day): 23%; patients with mild side effects ([5]; drowsiness most common): 4 patients; reduction of RNA binding, wild type NS4B [6]: ~2 fold; reduction of RNA binding, W55R mutant NS4B [7]: ~2 fold; HCV viral load after clemizole monotherapy ([8]; 100 mg po BID, week 4, 3 patients): nearly at or below the limit of HCV detection; also recorded: completely, or nearly, undetectable; HCV viral load after clemizole monotherapy plus clemizole with pegylated interferon ([8]; 4 weeks monotherapy plus 4 weeks clemizole-standard dose pegylated interferon): below the limit of detection; difference between IC50 for in vitro RNA binding and EC50 for antiviral effect in cells [9]: ~400 fold; effect of adding clemizole to SCH503034 on inhibition of HCV replication ([9]; SCH503034 1-5 micromolar, 72 hours, FIGS. 1A and 1B): increase the inhibition of HCV replication in a dose-dependent manner by up to several logs
COC(=O)c1ccc(Cn2cnc3ccccc32)cc1 | + (60-90% residual activity) | ++ (30-60% residual activity) | 74 | 54 | 
O=C(O)C1=CC(=C(c2ccc(O)c(C(=O)O)c2)c2ccc(O)c(C(=O)O)c2)C=CC1=O [ATA, Aurintricarboxilic acid] |  |  |  |  | inhibitory effect on binding of HuR to the 3′ terminus of the negative HCV RNA strand [2]: significantly inhibited; inhibitory effect on binding of HuR to the consensus 4A RNA sequence [2]: significantly inhibited
OCc1nc2ccccc2n1Cc1ccc(Br)cc1 | ++ (30-60% residual activity) | +++ (0-30% residual activity) | 50 | 28 | 
Cc1ccc(Cn2cnc3ccccc32)cc1 | ++ (30-60% residual activity) | +++ (0-30% residual activity) | 49 | 23 | 
Brc1ccc(Cn2cnc3ccccc32)cc1 | +++ (0-30% residual activity) | +++ (0-30% residual activity) | 23 | 8 | 
Cc1nc2cc(Cl)ccc2n1Cc1ccccc1 | + (60-90% residual activity) | + (60-90% residual activity) | 87 | 60 | 
Cc1nc2ccccc2n1Cc1ccc(Br)cc1 | +++ (0-30% residual activity) | +++ (0-30% residual activity) | 3 | 2 | 
COc1ccc(Cn2cnc3ccccc32)cc1 | + (60-90% residual activity) | ++ (30-60% residual activity) | 70 | 58 | 
Clc1ccc(Cn2c(CN3CCCC3)nc3ccccc32)cc1 [drawing 374] | + (60-90% residual activity) | ++ (30-60% residual activity) | 62 | 37 | Viab, percent of normal cell viability remaining ([1]; 5 uM): 107%; Viab, percent of normal cell viability remaining ([1]; 10 uM): 93%; viability at 72 h, 5 µM [10]: 90 to 100%; viability at 72 h, 10 µM [10]: 90 to 100%
CC(C)(C)c1ccc(Cn2cnc3ccccc32)cc1 | +++ (0-30% residual activity) | +++ (0-30% residual activity) | 30 | 12 | 
Cl.Clc1ccc(Cn2c(CN3CCCC3)nc3ccccc32)cc1 [Clemizole hydrochloride, 1-p-Chlorobenzyl-2-(1-pyrrolidinyl)methylbenzimidazole hydrochloride, reference compound] |  |  |  |  | cellular toxicity ([1]; at concentrations up to 20 μM, 72 hr, Alamar Blue): no measurable cellular toxicity; time to relief of itching ([5]; human, in vivo): 24 to 48 h; decrease in viral replication ([9]; 20 μM, luciferase at 72 hr): tenfold decrease
Cc1cc2ncn(Cc3ccc(Cl)cc3Cl)c2cc1C | +++ (0-30% residual activity) | +++ (0-30% residual activity) | 30 | 8 | 
Interferon alpha B2 |  |  |  |  | reduction of luciferase activity (positive control) ([9]; 100 u/ml, 72 hr treatment): three log reduction
